Reference: patent publication US9723989B2, “Ex vivo motility contrast imaging” (Purdue Research Foundation, priority 2015, dated 2017)

Test system: DLD-1 tumor spheroid
Experiment: Biodynamic imaging / tissue dynamics spectroscopy, combined (Het, Div) metric of drug response
Assay type: cell-based
Conditions: per-pixel TDS drug-response spectrograms, FIG. 14, FIG. 15
Text: There are two light paths in the optical coherence imaging system. The laser source provides light which is intensity-controlled by the neutral density filter and size-controlled by lenses L1 and L2. Light is communicated through a half-wave plate, and is then communicated through a polarizing beam splitter (PBS1) which generates an object path and a reference path. Lenses L3 and L4 expand the reference beam, and lens L5 performs the Fourier transform of the back-scattered dynamic speckle from a target. The wave plates (half-wave plate and quarter-wave plate) and the PBS2 ensure most of the laser power is in the object beam, and most of the back-scattered signal reaches the charge coupled device (CCD). The target is often a multicellular tumor spheroid, but can be any living biological specimen that is sufficiently immobilized, such as living tissue obtained by surgical biopsy or by needle biopsy. In TDS experiments, the images are captured at a fixed-depth (usually the mid-plane of the tumor tissue). For example, if the tumor spheroid has a diameter of 500 microns, the images captured by the CCD camera are the Fourier Domain back-scattered dynamic speckle holograms at the fixed depth of 250 microns in the tumor spheroid. Conversely, sections from multiple depths can be acquired to obtain stacks of images that are reconstructed into three-dimensional optical coherence volumetric images. In each 4 min interval, 2 acquisition rates are applied. First 200 images are captured at 25 fps; then another 100 images are captured at 0.5 fps. Thus after combining the high frequency data and the low frequency data together, in each 4 min interval (each data set), the spectrum frequency range is from 0.005 Hz to 12.5 Hz across more than 3 orders of magnitude.
The high-frequency acquisition generates a series of image frames in which the speckle varies in intensity from frame to frame. These intensities are analyzed using a Fourier transform to generate a high-frequency spectrum. The low-frequency acquisition similarly generates a low-frequency spectrum. These high- and low-frequency spectra overlap over a frequency range. A stitching algorithm is performed that combined the high- and low-frequency spectra into a single broad-band spectrum. This spectrum relates to the 300 images and constitutes one time-point spectrum. The process is repeated to generate a series of time-point spectra.
The outcome of the heterogeneity sampling can be encapsulated in a small number of metrics that are communicated to the operator. […]
An example of spatial non-uniformity is shown in FIG. 14 for the Raf inhibitor drug Sorafenib applied to a DLD-1 tumor spheroid. […] These spectrograms were analyzed for intensity and for spectral content. […]

Row | Compound | Heterogeneity (Het) - how spatially uniform is the response | Diversity (Div) - phenotypic diversity, difference in spectrogram features / spectral content
1 | CNC(=O)c1cc(Oc2ccc(NC(=O)Nc3ccc(Cl)c(C(F)(F)F)c3)cc2)ccn1 [Sorafenib] | 0.83 | –
2 | CC(=O)O[C@H]1C(=O)[C@@]2(C)[C@H]([C@H](OC(=O)c3ccccc3)[C@]3(O)C[C@H](OC(=O)[C@H](O)[C@@H](NC(=O)c4ccccc4)c4ccccc4)C(C)=C1C3(C)C)[C@]1(OC(C)=O)CO[C@@H]1C[C@@H]2O [taxol] | high spatial heterogeneity | spectral content appears the same for core and shell
3 | CC(C)[C@@H]1NC(=O)[C@H](C)OC(=O)[C@@H](C(C)C)NC(=O)[C@@H](C(C)C)OC(=O)[C@H](C(C)C)NC(=O)[C@H](C)OC(=O)[C@@H](C(C)C)NC(=O)[C@@H](C(C)C)OC(=O)[C@H](C(C)C)NC(=O)[C@H](C)OC(=O)[C@@H](C(C)C)NC(=O)[C@@H](C(C)C)OC1=O [valinomycin] | One of the most uniform | –
